Data on two molecules can be found in US10927067B2, “Organic crystalline salt of haloacetic acid” (priority 2016, dated 2021).

The mortality is the percentage killed.

Bounds are passed on as bounds.

The subject of one data set is MCF7 cells. Nature of the data set: zebrafish xenotransplantation tumor model (zebrafish model of hepatocarcinoma), oral dosing with feed for 14 days. The data set is classed as in vivo. As to the method:
The study was carried out in group sizes of 6 adult fish. Fish were induced with tumor through xenotransplantation of log phase cells. Groups were treated with compounds through oral dosing and treated groups were compared to vehicle treated, to quantify activity against tumor.
Fishes were anesthetized using cold water of 15° C. and 3 ul of 1×10^6 log phase MCF7 cells were injected into the peritoneum to induce tumor. Fish were transferred to housing tanks and maintained for 21 days until tumor reached maximum growth phase.
The stock compound is prepared by dissolving appropriate amount of compound in 1 ml of Phosphate Buffered Saline (PBS—8 g of NaCl, 0.2 g of KCl, 1.44 g of Na2HPO4 and 0.24 g of KH2PO4 is made to 1 litre and pH adjusted to 7.4.) containing 20% DMSO and 30% fish feed grade coconut oil and stored at 4° C. until use.
Fishes were dosed by mixing the compound with feed for 14 days. A per day dosing weight of compound was dissolved in 3 ul of compound dissolving medium and added to a pellet. The pellets were dried at 70 degrees to remove moisture prior to adding compound and post addition and absorption of compound the pellets were transferred to 4° C.
Statistical comparisons were made using GraphPad. Student's t test with a 95% confidence interval was performed using a two-way ANOVA at an alpha=0.05 (95% confidence interval). Significance is denoted with asterisks: ns not significant, *P<0.05, **P<0.01, ***P<0.001, ****P<0.0001.

For data set [1] the following is noted: crystals from 95% ethanol, Example 3.
Procedure: Mixture of dichloroacetic acid (V) (1.28 g, 1.2894 mmol) and tromethamine (DI) (1.2 g) are dissolved in 10 ml of 95% ethanol.
The conditions of data set [2]: DSC, FIG. 5. As to the method:
DSC measurements were carried out using STA 6000 (Simultaneous Thermal Analyzer TG with DSC/DTA).
TGA measurements were carried out using STA 6000 (Simultaneous Thermal Analyzer TG with DSC/DTA).

The mark [3] stands for this setting: 5 mM concentration, 14 days treatment, FIG. 8.

Turning to `O=C([O-])C(Cl)Cl.[Na+]` [Formula (VI), sodium dichloroacetate, reference compound], in the data set on MCF7 cells (1 mM concentration, FIG. 7), the mortality was found to be 70%, the relative neovascularization reversal was found to be 60% and the tumor reversal is listed as 40%. In the data set with MCF7 cells (setting [3]), this molecule displayed a mortality of 90%. Further, in the data set on MCF7 cells (5 mM concentration, FIG. 8), the neovascularization reversal was 70% and the relative tumor reversal was 50%.

Turning to “dichloroacetate tromethamine [Formula (VII)]”, in data set [1], the water solubility entry was “water soluble”. The thermally stable upto in data set [2] is no more than 150 °C. Further, in the data set with MCF7 cells (1 mM concentration, FIG. 7), the mortality result is reported as “No mortality”, the relative neovascularization reversal is on record as no more than 90% and the tumor reversal was no more than 60%. Also, the mortality result in the data set on MCF7 cells (setting [3]) is reported as “No mortality”. Moreover, in the data set on MCF7 cells (5 mM concentration, FIG. 8), the neovascularization reversal entry is “complete” and the relative tumor reversal result is listed as “up to 90%”.
